Here are results for two substances from patent US8470892B2, “Method of inducing neovascularization” (priority 2010, dated 2013).

In data set [1] the test system is complement system. Put plainly: Dependence of PEG-8 induced CNV on complement: depletion with Cobra Venom Factor. In kind it is in vivo, mice. The protocol:
To investigate dependence of PEG-8 induced CNV on complement system activation, the complement system in the mice was depleted by intraperitoneal administration of Cobra Venom Factor. Four groups of animals were used (n=5 mice in each group). Group 1 and 2 were treated intraperitoneal with 4 U of cobra venom factor as described in the inventors' previous publication for 2 days before and every day after subretinal injections. Group 3 and 4 were injected intraperitoneal with vehicle (0.9% Sodium Chloride).
The mice were then injected with subretinal PEG-8 and investigated at day 5 after treatment. […] RPE-choroids of these mice were stained for MAC by IHC and investigated flat mounts using confocal microscopy. Areas of high MAC deposition in animals treated with saline (FIG. 4B) were found but not in CVF treated group (FIG. 4C).

Data set [2] deals with complement system. The data set can be described thus: Activation of the complement system by PEG-8 in serum and RPE-choroid. The format is in vivo, mice. The protocol:
Activation of the complement system by PEG-8 was also studied in the RPE-choroid and in the blood. PEG-8 or saline was injected subretinally and animals were sacrificed at day 1, 3 and 5 after treatment. Total complement activation was studied in the serum. Levels of C3 split products and MAC were investigated in RPE-choroid tissue. […] PEG-8 and saline injected animals at day 3 and 5 had the same levels of total C3 (43 kDa and 23 kDA), but levels of C3 (43 kDa) were higher in PEG-8 treated animals compared to saline injected mice (FIGS. 5C, D).

For the next data set, the system named is VEGF. The data set can be described thus: VEGF levels by ELISA in posterior part of the eyes after PEG-8. The format is in vivo, mice.
For a further data set, the system named is Male C57BL/6 mice. Put plainly: CNV induction by subretinal injection of PEG-8 (FITC-dextran perfused RPE-choroid-sclera flat mounts). The format is in vivo. The procedure:
Male C57BL/6 mice (7-9 weeks old) were anesthetized with Ketamine (80 mg/kg) and Xylazine (20 mg/kg) prior to subretinal injection. One eye was decompressed with 27G needle by inserting the needle through the limbus and sclera. Microinjector UMP3 equipped with Nanofil syringe 100 μL and 33G blunt needle (Word Precision Instruments) was used for injections. The needle was inserted into the incision created by decompression. Movement of the needle was stopped when light resistance was felt by operator. Solutions (single injection of 2 μL) were injected slowly for 5 seconds in the subretinal space. All manipulations were performed under visual control using microscope. Detachment of the retina was visible through the lens. The second eyes of mice were not injected.
To investigate dose dependent effect of PEG-8 (Polyethylene glycol 400) the inventors divided the animals into 7 groups: one control group (n=3 mice) which was not treated at all, group 2 (n=3 mice) received a single subretinal injection of vehicle (2 μL of 0.9% sterile sodium chloride), and five experimental groups which were injected with different doses of PEG-8: 2.0 mg, 1.0 mg, 0.5 mg, 0.25 mg and 0.125 mg. PEG-8 was dissolved in vehicle before injection. Doses of PEG-8 were delivered to the one experimental eye in 2 μL respectively. To determine optimal dose of PEG-8, the inventors performed histological examination and investigation of flat mounted RPE-choroid-sclera complexes after perfusion of animals with FITC-dextran solution at day 14 after injection.
To investigate the time course of CNV after PEG-injection, the animals were injected with 1.0 mg of PEG-8 subretinally and 5 mice from each group were sacrificed at day 1, 3, 5, 7, 14, 21, 28, and 42 post-injection. […] CNV reached maximal size at day 5 and was present until at least day 42.
To evaluate the CNV size, the animals were perfused through their heart with 0.75 ml of phosphate-buffered saline (PBS) containing 50 mg/ml of fluorescein-labeled dextran (FITC-Dextran, 2 million average mw) before they were sacrificed. The eyes were harvested and fixed for 4 hours in 10% phosphate buffered formalin and RPE-choroid-sclera flat mounts were prepared. The RPE-choroid-sclera complexes were mounted in ProLong Antifade reagent with the sclera facing down and were examined under a ZEISS LSM 510 laser confocal microscope.
Confocal microscopy of flat mounted RPE-choroids perfused with FITC-dextran was performed and investigated with semi thin (1 μm) embedded sections at day 5 after injection when CNV was fully developed. […] After PEG-8 injection, CNV was located between two layers of RPE cells in subretinal space (FIGS. 3B, D, F). No vessels originated from retina was found (FIG. 3D). 5 μm paraffin section of control (saline) and PEG-8 injected mice at day 1 were investigated, 3 and 5 after treatment. RPE cells in control groups formed single layer of cells and endothelial cells were found within choroid (FIG. 3G). Starting from day 1 after PEG-8 treatment, zones of affected RPE cell structure were discovered with increased size, irregular shape and presence of space between neighboring RPE cells (FIG. 3H). Isolectin-IB4 positively labeled cells located between affected RPE cells were found at day 1, 3 and 5 after injection (FIGS. 3H-J). Isolectin-IB4 positive had contact with choroidal Isolectin-IB4 positive capillaries and formed vessels in subretinal tissue between existing and newly formed RPE cell layers (FIG. 3J).

The mark [3] stands for this setting: subretinal PEG-8, day 1, 3 and 5.

Take CVF: in the data set with complement system [1] (4 U CVF intraperitoneal, day 5 after subretinal PEG-8, p<0.05), the “total complement activity in serum vs saline injected animals” value is reported as “significantly reduced”. Also, the “reduction of CNV size (area of FITC-dextran perfused vessels)” value in the data set on complement system [1] (CVF intraperitoneal, PEG-8 induced CNV, day 5, p<0.05) came out at 3 fold. The “MAC positive fluorescence in RPE-choroid, saline treated animals compared to CVF injected mice” value in the data set on complement system [1] (IHC flat mounts, day 5, p<0.05) is given as “significantly higher”.
For the substance Polyethylene glycol 400 [PEG-8], in the data set on complement system [2] (all investigated time points (day 1, 3, 5)), the “MAC levels in RPE-choroid vs saline treated animals (Western blotting)” value is reported as “approximately three fold higher”. Besides, the “C3 split products levels in RPE-choroid vs saline injected mice” value with complement system [2] (day 1 post-injection only) is “three-fold increase”. Besides, in the data set on complement system [2] (day 3 and 5), the “levels of C3 (43 kDa) vs saline injected mice” value is recorded as “higher”; the “levels of total C3 (43 kDa and 23 kDA) vs saline” value is on record as “same levels”. Besides, in the data set with complement system [2] (setting [3]), the “alternative complement activity in mouse serum” value is “did not affect” and the “total complement activity in mouse serum” value is “did not affect”. The “VEGF in intra- and extracellular fraction of proteins from posterior part of the eyes” value in the data set on VEGF is given as “increase of VEGF”. The “CNV size and frequency compared between doses” value in the data set on Male C57BL/6 mice (1.0 mg dose, day 14) was “largest size and frequency”. Besides, the “frequency of CNV” value in the data set on Male C57BL/6 mice (1.0 mg subretinal, day 14 after injection) is on record as 4.4 sites of CNV per eye. In the data set on Male C57BL/6 mice (1.0 mg subretinal, time course), the CNV present until is at least 42 days, the “first signs of CNV detected” value came to 3 days and the “time at which CNV reached maximal size” value turned out to be 5 days. For the same substance, in the data set with Male C57BL/6 mice (compared to laser treatment or surgical procedures), the “damage of RPE-choroid after subretinal injection” value is listed as “much smaller”. For the same substance, the “occurrence of CNV” value in the data set on Male C57BL/6 mice (doses 2.0, 1.0, 0.5, 0.25 and 0.125 mg subretinal, day 14) was “CNV in all investigated groups”.
